Measured values published in the NIST ThermoML archive (doi:10.1021/je500380x).

Assay: mn = molality of the nth substance listed, in mol/kg
Conditions: 100 kPa, Liquid; for viscosity: Falling or rolling sphere viscometry; for mass density: Vibrating tube method; for electrical conductivity: Alternating current cell with electrodes

CCC(=O)OCCN1CCNCC1 [2-(piperazin-1-yl)ethyl propionate] + CO
Conditions	electrical conductivity [S/m]	mass density [kg/m3]	viscosity [mPa·s]
308.15 K, m1 = 0.05	–	780.29	–
308.15 K, m1 = 0.1001	–	783.39	–
308.15 K, m1 = 0.2006	–	789.53	–
308.15 K, m1 = 0.3003	–	795.62	–
308.15 K, m1 = 0.3995	–	801.72	–
308.15 K, m1 = 0.5005	–	807.84	–
308.15 K, m1 = 0.6006	–	814.12	–
308.15 K, m1 = 0.7007	–	820.37	–
308.15 K, m1 = 0.8007	–	826.54	–
308.15 K, m1 = 0.9008	–	832.74	–
308.15 K, m1 = 1.001	–	838.83	0.949
308.15 K, m1 = 1.2	–	851.28	1.098
308.15 K, m1 = 1.401	–	864.42	1.305
308.15 K, m1 = 1.6	–	876.97	1.56
308.15 K, m1 = 1.801	–	890.31	1.895
308.15 K, m1 = 2	–	903.56	2.346
308.15 K, m1 = 2.203	–	917.48	2.912
308.15 K, m1 = 2.403	–	930.52	3.753
308.15 K, m1 = 2.603	–	943.48	4.841
308.15 K, m1 = 2.803	–	956.73	6.372
308.15 K, m1 = 3.001	–	970.42	8.863
313.15 K, m1 = 0.05	0.142	775.51	0.484
313.15 K, m1 = 0.1001	0.238	778.61	0.494
313.15 K, m1 = 0.2006	0.384	784.77	0.522
313.15 K, m1 = 0.3003	0.498	790.88	0.552
313.15 K, m1 = 0.3995	0.586	797	0.585
313.15 K, m1 = 0.5005	0.661	803.15	0.623
313.15 K, m1 = 0.6006	0.729	809.45	0.664
313.15 K, m1 = 0.7007	0.779	815.73	0.706
313.15 K, m1 = 0.8007	0.823	821.92	0.76
313.15 K, m1 = 0.9008	0.857	828.14	0.815
313.15 K, m1 = 1.001	0.898	834.22	0.878
313.15 K, m1 = 1.2	0.931	846.77	1.012
313.15 K, m1 = 1.401	0.948	859.97	1.197
313.15 K, m1 = 1.6	0.941	872.59	1.425
313.15 K, m1 = 1.801	0.918	885.98	1.723
313.15 K, m1 = 2	0.873	899.28	2.12
313.15 K, m1 = 2.203	0.82	913.27	2.614
313.15 K, m1 = 2.403	0.751	926.52	3.343
313.15 K, m1 = 2.603	0.674	939.34	4.274
313.15 K, m1 = 2.803	0.599	952.7	5.571
313.15 K, m1 = 3.001	–	966.46	7.662
313.15 K, m1 = 3.006	0.534	–	–
318.15 K, m1 = 0.05	0.145	770.7	0.459
318.15 K, m1 = 0.1001	0.243	773.8	0.468
318.15 K, m1 = 0.2006	0.395	779.98	0.493
318.15 K, m1 = 0.3003	0.511	786.11	0.521
318.15 K, m1 = 0.3995	0.604	792.25	0.55
318.15 K, m1 = 0.5005	0.685	798.42	0.584
318.15 K, m1 = 0.6006	0.754	804.74	0.622
318.15 K, m1 = 0.7007	0.806	811.06	0.66
318.15 K, m1 = 0.8007	0.855	817.27	0.708
318.15 K, m1 = 0.9008	0.891	823.51	0.759
318.15 K, m1 = 1.001	0.936	829.66	0.814
318.15 K, m1 = 1.2	0.975	842.24	0.935
318.15 K, m1 = 1.401	0.994	855.48	1.102
318.15 K, m1 = 1.6	0.995	868.17	1.306
318.15 K, m1 = 1.801	0.971	881.62	1.571
318.15 K, m1 = 2	0.932	894.99	1.922
318.15 K, m1 = 2.203	0.874	909.04	2.355
318.15 K, m1 = 2.403	0.809	922.36	2.99
318.15 K, m1 = 2.603	0.724	935.25	3.793
318.15 K, m1 = 2.803	0.656	948.64	4.897
318.15 K, m1 = 3.001	–	962.47	6.668
318.15 K, m1 = 3.006	0.583	–	–
323.15 K, m1 = 0.05	0.148	765.85	0.437
323.15 K, m1 = 0.1001	0.244	768.95	0.445
323.15 K, m1 = 0.2006	0.406	775.15	0.467
323.15 K, m1 = 0.3003	0.529	781.29	0.492
323.15 K, m1 = 0.3995	0.625	787.45	0.519
323.15 K, m1 = 0.5005	0.709	793.64	0.549
323.15 K, m1 = 0.6006	0.782	799.99	0.583
323.15 K, m1 = 0.7007	0.833	806.34	0.617
323.15 K, m1 = 0.8007	0.889	812.57	0.661
323.15 K, m1 = 0.9008	0.927	818.85	0.707
323.15 K, m1 = 1.001	0.976	825.02	0.757
323.15 K, m1 = 1.2	1.017	837.66	0.866
323.15 K, m1 = 1.401	1.042	850.96	1.016
323.15 K, m1 = 1.6	1.045	863.7	1.199
323.15 K, m1 = 1.801	1.032	877.22	1.436
323.15 K, m1 = 2	0.996	890.65	1.748
323.15 K, m1 = 2.203	0.933	904.77	2.13
323.15 K, m1 = 2.403	0.866	918.16	2.685
323.15 K, m1 = 2.603	0.781	931.01	3.381
323.15 K, m1 = 2.803	0.708	944.56	4.325
323.15 K, m1 = 3.001	–	958.45	5.906
323.15 K, m1 = 3.006	0.636	–	–
